Columns and labels:
[1] = test system: PAK1; test: Co-immunoprecipitation / Western blot NCK2-PAK1 (Fig. S6A-B); format: cell-based, human; settings: Prey PAK1, sheet FigS6A-D
Description: (§1) For the experiments with HEK293T cells (1 × 10cm confluent dish for WB and 3 × 15cm for MS), cells were washed in ice-cold PBS and lysed in lysis buffer (20 mM Tris-HCl pH 7.4, 150 mM NaCl, 1 mM EDTA, 0.5% sodium deoxycholate (Millipore Sigma), 10 mM beta-glycerophosphate (Millipore Sigma), 10 mM sodium pyrophosphate (Millipore Sigma), 50 mM NaF (Millipore Sigma)). Protease inhibitors were added to the lysis buffer (P8340 (Millipore Sigma) for WB and PMSF 1 mM, aprotinin 10 µg/mL, leupeptin 10 µg/mL and pepstatin 10 µg/mL (all Millipore Sigma) for MS). Cells were scraped in the lysis buffer and lysed at 4 °C for 20 min and centrifuged for another 20 min at 20,000 g at 4 °C. Bait proteins from the supernatant were immunoprecipitated for 90 min at 4 °C with FLAG-M2 agarose beads (Millipore Sigma) and washed three times in the lysis buffer. Beads were then used for WB or MS experiments (see below).
(§2) Protein extracts and affinity-purified baits from yeast and human lysed cells were migrated on 10% polyacrylamide gels. The separated proteins were then transferred to nitrocellulose membranes. Validation of correct protein loading was done with ponceau staining of the membranes. Before the primary antibody incubations, membranes were blocked in 5% milk. Protein signals were detected on an Amersham Imager 600RGB (GE Healthcare) following the incubation of the membranes with the appropriate HRP-conjugated secondary antibodies and the Clarity Western ECL Substrate (Bio-Rad). The antibodies used in this study are M2-HRP (A8592, Sigma, 1/50,000), rabbit anti-FLAG (F7425, Sigma, 1/1000), PAK (SC-881, Santa Cruz, 1/200), p130cas/BCAR1 (SC-860, Santa Cruz, 1/200), actin (Cell Signaling Technology, 1/2000), anti-mouse HRP (Cell Signaling Technology, 1/10,000) and anti-rabbit HRP (Cell Signaling Technology, 1/10,000). The quantification of the WB signals was performed with the Amersham Imager 600 analysis software (GE Healthcare).
(§3) Supplementary Fig. 6| NCK2 SH3 shuffling affects its interactions with PAK1 and P130CAS/BCAR1 in cells but only slightly alters the availability of the SH3 binding pockets in vitro. A, Western blot analysis of NCK2 SH3-shuffled proteins interaction with PAK1. Each bait is N-terminally fused to a 3XFLAG tag. Loading corresponds to Ponceau staining of the nitrocellulose membrane. Experiment was performed in four replicates in HEK293T cells. B, Western blot quantification of PAK1 co-immunoprecipitation with NCK2.
(§4) Average log2 ratio relative to the WT protein is shown (NCK2mut/NCK2WT, WT NCK2 log2 ratio = 0). Ratios from replicates were compared t o WT NCK2 via pairwise ANOVA statistical […]
(§5) bars indicate the SD. C, Western blot analysis of NCK2 SH3-shuffled proteins association with SH2 target P130CAS/BCAR1. The experiment was performed in four replicates in HEK293T cells stimulated with the tyrosine phosphatase inhibitor pervanadate. D, Quantification of the Western blot signals of P130CAS co-immunoprecipitation with NCK2 as in B,. The four ratios of the replicates were compared to WT NCK2 via pairwise ANOVA statistical test (p -values: […]
(1 picture or pasted object on this page, not shown here)

[2] = test system: P130CAS/BCAR1; test: Co-immunoprecipitation / Western blot NCK2-P130CAS/BCAR1 (Fig. S6C-D); format: cell-based, human; settings: Prey P130CAS, sheet FigS6A-D
Description: Human embryonic kidney 293T cells (HEK293T, ATCC:CRL-3216) were grown in Dulbecco’s Modified Eagle’s medium (DMEM) high glucose complemented with 10% fetal calf serum under 5% CO2 at 37 °C. Transient expression of cDNA in cells was performed by polyethylenimine (PEI, Millipore Sigma) transfections. Enrichment of phospho-dependent PPIs was done by treating HEK293T cells with the tyrosine phosphatase inhibitor pervanadate, freshly made by mixing 4 mM orthovanadate (Millipore Sigma) with 30% H2O2 (Millipore Sigma) in water in a 200:1 volume ratio.
as §1, §2, §3, §4, §5

[3] = test system: BUD14; test: DHFR-PCA on solid medium, bait BUD14 (Fig. 1B); format: cell-based, Saccharomyces cerevisiae; settings: bait BUD14, label = prey; for medrep (log2 median colony size normalized to plate background, PCA score): 4 replicates; for Ratio (SH3-deleted/WT medrep): only significant differences showed, PPIs completely lost have a ratio of 0.1 and the gained PPIs 2.5
From the text: (§6) Supplement 41467_2021_21873_MOESM8_ESM.xlsx, sheet "Fig1B" | column: medsize; medrep; Ratio; Score

[4] = test system: BEM1-1; test: DHFR-PCA on solid medium, bait BEM1-1 (Fig. 1B); format: cell-based, Saccharomyces cerevisiae; settings: bait BEM1-1, label = prey; for medrep (log2 median colony size normalized to plate background, PCA score): 2-8 replicates
From the text: as §6

[5] = test system: BZZ1-1; test: DHFR-PCA on solid medium, bait BZZ1-1 (Fig. 1B); format: cell-based, Saccharomyces cerevisiae; settings: bait BZZ1-1, label = prey; 4 replicates
From the text: Supplement 41467_2021_21873_MOESM8_ESM.xlsx, sheet "Fig1B" | column: medsize; medrep; Score

[6] = test system: ABP1; test: DHFR-PCA on solid medium, bait ABP1 (Fig. 1B); format: cell-based, Saccharomyces cerevisiae; settings: bait ABP1, label = prey; 2-4 replicates
From the text: as §6

[7] = test system: BBC1; test: DHFR-PCA on solid medium, bait BBC1 (Fig. 1B); format: cell-based, Saccharomyces cerevisiae; settings: bait BBC1, label = prey; 2-4 replicates
From the text: as §6

[8] = test system: BOI2; test: DHFR-PCA on solid medium, bait BOI2 (Fig. 1B); format: cell-based, Saccharomyces cerevisiae; settings: bait BOI2, label = prey; for medrep (log2 median colony size normalized to plate background, PCA score): 3-8 replicates
From the text: as §6

[9] = test system: BEM1-2; test: DHFR-PCA on solid medium, bait BEM1-2 (Fig. 1B); format: cell-based, Saccharomyces cerevisiae; settings: bait BEM1-2, label = prey; 2-8 replicates
From the text: as §6

[10] = test system: 575 putative partners (preys) of 22 WT SH3-containing proteins; test: DHFR-PCA on solid medium, WT and SH3-deleted baits (Fig. 1B); format: cell-based, Saccharomyces cerevisiae; set-up: key to Score: 0: SH3-independent; 1: SH3-dependent PPIs; 2: SH3-inhibited PPIs; settings: for medrep (log2 median colony size normalized to plate background, PCA score): bait SLA1-3, DHFR-PCA, label = prey, Replicates 4 (2 for YCR009C, YDR388W, YIL033C); for Score: bait SLA1-3, label = prey
From the text: To assess the requirement of SH3 domains for PPIs in vivo, we first measured binary interactions between 22 WT SH3-containing proteins (Supplementary Fig. 1A) as baits and 575 putative partners from their interconnected signaling networks using the dihydrofolate reductase protein–fragment complementation assay (DHFR-PCA) in the budding yeast Saccharomyces cerevisiae. About 33% (202/607) of the PPIs detected were described before, mostly by direct methods (Supplementary Fig. 1B, C)[11]. We repeated the experiments with baits in which the SH3s were individually replaced with a flexible linker by genome editing (SH3 domain deletion/stuffing, Fig. 1A). The stuffer DNA sequence ([…]) codes for a small flexible poly-Gly with Ser peptide ([…]) that is inspired by previous experiments[12],[13]. About a third of the SH3-containing protein interactome is qualitatively or quantitatively SH3-dependent (171 PPIs out of 607, Fig. 1B and Supplementary Fig. 1B, C). We validated the vast majority of the quantitative changes in low-throughput experiments and excluded that this is simply due to changes in protein abundance in most cases (Supplementary Fig. 1D–G). SH3-binding motifs[14] are more frequent in the SH3-dependent PPI partners when compared to sequences from random proteins, SH3-independent PPI partners or PPI partners that are stronger or gained following SH3 deletions (p values = 1.5 × 10^−17, 0.0038 and 2.1 × 10^−08, respectively; Mann–Whitney test, one-tailed, Fig. 1C). The changes we measure are therefore enriched for PPIs that depend on the direct interactions of the domains with the PPI partners.
The complete list of strains, primers, and gRNAs used in this study can be found in Supplementary Tables 1–3. All constructed yeast strains were validated by polymerase chain reaction (PCR) and confirmed by Sanger sequencing of the locus of interest. Bait strains for the DHFR-PCA experiments were constructed as follows. The genes of interest were fused at their genomic 3′ end by replacing the stop codon with a linker ([…]), the DHFR F[1,2] followed by a smaller linker (GGGGS), a 1× FLAG tag ([…]) and the NATMX4 resistance cassette via homologous recombination (all amplified from pAG25-DHFR[1,2]-linker-FLAG). The set of 615 prey strains (DHFR F[3] fusions in the BY4742 background) were retrieved from the Yeast Protein Interactome Collection[43] with the exception of 73 that were reconstructed (Supplementary Tables 1 and 2). Knockout strains were taken from the yeast knockout collection except for ABP1, BEM1, BZZ1, and SLA1, which were reconstructed by replacing the ORFs with the NATMX4 resistance cassette by homologous recombination in the BY4741 background.
Yeast SH3 domain genomic sequences were replaced by CRISPR–Cas9 genome editing. Each SH3 domain (as defined by the SMART database V8.0 except for Ysc84 SH3 (as defined by PROSITE), see Source Data for all SH3 sequences and Supplementary Table 1 for primers used) was specifically targeted by one gRNA[46]. Yeast competent cells were co-transformed with a pCAS plasmid (Addgene plasmid 60847[47]) expressing both the gRNA of interest and Streptococcus pyogenes Cas9[46] and a donor DNA sequence (stuffer) with 60 bp homology arms surrounding the SH3 DNA sequence. The Stuffer DNA was either PCR amplified or digested from a plasmid. The stuffer DNA sequence ([…]) codes for a small flexible linker ([…]) inspired by protein linkers used in structural biology[12],[13]. This type of linker is frequently used for fusing proteins without affecting the structure of the linked proteins.
The overall DHFR-PCA pipeline is based on Tarassov et al.[43] and the procedures have also been published as a visualized protocol. The screens were performed with robotically manipulated pin tools (BM5-SC1, S&P Robotics Inc.). First, the preys were cherry-picked from 96-well plates to omnitrays in a 384 format on YPD + HPH solid media. […]

[11] = test system: BOI1; test: DHFR-PCA on solid medium, bait BOI1 (Fig. 1B); format: cell-based, Saccharomyces cerevisiae; settings: bait BOI1, label = prey; for medrep (log2 median colony size normalized to plate background, PCA score): 3-8 replicates; for Ratio (SH3-deleted/WT medrep): only significant differences showed, PPIs completely lost have a ratio of 0.1 and the gained PPIs 2.5
From the text: as §6

[12] = average of R1-R4, SD in next column
[13] = only significant differences showed, PPIs completely lost have a ratio of 0.1 and the gained PPIs 2.5

Row | Substance | medrep (log2 median colony size normalized to plate background, PCA score) [3] | Ratio (SH3-deleted/WT medrep) [3] | medrep (log2 median colony size normalized to plate background, PCA score) [4] | medrep (log2 median colony size normalized to plate background, PCA score) [5] | medrep (log2 median colony size normalized to plate background, PCA score) [6] | medrep (log2 median colony size normalized to plate background, PCA score) [7] | medrep (log2 median colony size normalized to plate background, PCA score) [8] | medrep (log2 median colony size normalized to plate background, PCA score) [9] | medrep (log2 median colony size normalized to plate background, PCA score) [10] | Score [10] | medrep (log2 median colony size normalized to plate background, PCA score) [11] | Ratio (SH3-deleted/WT medrep) [11] | also measured
1 | NCK2 WT |  |  |  |  |  |  |  |  |  |  |  |  | Log2 ratio average [1, 12]: 0; Log2 ratio on WT R1 ([1]; replicate R1): 0; Ratio on WT R1 ([1]; replicate R1): 1; Log2 ratio on WT R3 ([1]; replicate R3): 0; Ratio on WT R3 ([1]; replicate R3): 1; Log2 ratio on WT R4 ([1]; replicate R4): 0; Ratio on WT R4 ([1]; replicate R4): 1; Log2 ratio average [2, 12]: 0; Log2 ratio on WT R1 ([2]; replicate R1): 0; Ratio on WT R1 ([2]; replicate R1): 1; Log2 ratio on WT R3 ([2]; replicate R3): 0; Ratio on WT R3 ([2]; replicate R3): 1; Log2 ratio on WT R4 ([2]; replicate R4): 0; Ratio on WT R4 ([2]; replicate R4): 1
2 | YBR234C | 1.638 | 0.1 | 2.151 | 4.45 | 5.488 | 5.076 | 2.566 | 2.151 | 5.2 | 0 |  |  | 
3 | YCR088W (PWATAEYDYDAAEDNELTFVENDKIINIEFVDDDWWLGELEKDGSKGLFPSNYVSLGN) |  |  | 1.996 | 4.666 | 5.528 | 4.833 | 2.0061 | 1.996 | 4.931 | 0 |  |  | Ratio (SH3-deleted/WT medrep) [4, 13]: 0.1
4 | YDL229W | 3.548 |  | 3.594 | 4.468 | 5.461 | 5.103 | 3.977 | 3.594 | 5.405 | 0 | 2.407 | 2.5 | 
5 | YER155C | 1.311 | 0.1 |  |  |  |  | 1.649 |  |  |  | 1.496 | 0.1 | Ratio (SH3-deleted/WT medrep) [8, 13]: 0.1
